Measured values: US11390621B2, “Chiral indole compounds and their use” (ARIAGEN, INC., priority 2019, dated 2022)
Several values for one entry are separate records, joined by “and”; a condition that tells them apart may be missing. Identical values can stand only once. Like-named read-outs stand apart in the source and are kept apart here.

What was measured:
[1] = Hepatocyte intrinsic clearance assay (metabolic stability), rat hepatocytes; assay type: in vitro ADME; conditions: rat, cryopreserved hepatocytes, Rat Hepatocytes, 1 μM test compound
Method in brief: (§1)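 Cryopreserved pooled hepatocytes (1×10^6 cells/mL final) incubated with 1 μM compound at 37 °C, 5% CO2; samples at 0–120 min quenched in acetonitrile, analysed by LC-MS in duplicate. t1/2 and CLint from ln(% remaining) vs time slope; CLH via well-stirred liver model (fu=1) and EH derived from it.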

rat hepatocytes = assay: as above; assay type: in vitro ADME; conditions: for EH (hepatic extraction ratio): well stirred liver model, fu=1; for CLint lower than that of ARI-164 (fold): rat hepatocytes
Method in brief: as §1

human hepatocytes = assay: Hepatocyte intrinsic clearance assay (metabolic stability), human hepatocytes; assay type: in vitro ADME; conditions: for EH (hepatic extraction ratio): well stirred liver model, fu=1
Method in brief: as §1

[2] = as above; assay type: in vitro ADME; conditions: male, human, cryopreserved pooled hepatocytes, Human Hepatocytes, 1 μM test compound
Method in brief: as §1

[3] = In vivo pharmacokinetic studies in rats; set-up: species or system SD rats; conditions: rats; for AUC(0-t): read-out: AUClast; for behaviour of exposure after 5 days of repeat dosing (in words): 10 mg/kg PO QD for 5 days
Protocol: This example describes pharmacokinetic (PK) studies of ARI-164, ARI-165, ARI-186, ARI-224, and ARI-226 in mice and rats. In the present studies, the test compounds were given to groups of mice and/or rats (N=3 in each group), intravenously (IV) at 2 mg/kg or orally (PO) at 10, 30, or 40 mg/kg. ARI-186, ARI-224 and ARI-226 were given orally to rats QD for 5 days at 10 mg/kg to assess whether decreased susceptibility to CYP1A1/1A2 metabolism would lead to increased accumulation. IV doses were formulated in DMSO, while PO doses were formulated in a 50/50 mixture of PEG400 and Tween 80 (single dose mouse and rat studies for ARI-164, ARI-165, ARI-186, ARI-224, ARI-226) or PEG400/Kolliphor HS15/Oleic Acid 45/45/10 (ARI-164 repeat dose rat study). Blood samples were collected at pre-dose and over a period of 24 hours post-dose. Plasma concentrations of the test compounds were determined by HPLC.

[4] = SD, rat, plasma, po, 10 mg/kg, PO 10 mg/kg repeat dose, Day 1, Mean of 3 animals
[5] = Sprague-Dawley (SD), rat, plasma, po, 10 mg/kg, PO 10 mg/kg repeat dose, Day 1, individual animals (ID 4, 5, 6)
[6] = Sprague-Dawley (SD), rat, plasma, po, 10 mg/kg, PO 10 mg/kg repeat dose, Day 5, Mean of 3 animals
[7] = PO 10 mg/kg repeat dose, Day 1, individual animals (ID 4, 5, 6), 10 mg/kg
[8] = PO 10 mg/kg repeat dose, Day 5, individual animals (ID 4, 5, 6), 10 mg/kg
[9] = Sprague-Dawley (SD), rat, plasma, po, 10 mg/kg, repeat 10 mg/kg PO QD, Day 1, Mean of 3 animals
[10] = Sprague-Dawley (SD), rat, plasma, po, 10 mg/kg, repeat 10 mg/kg PO QD, Day 1, Mean of 3 animals, read-out: Tmax
[11] = Sprague-Dawley, rat, plasma, po, 10 mg/kg, repeat 10 mg/kg PO QD, Day 1, individual animal
[12] = Sprague-Dawley, rat, plasma, po, 10 mg/kg, repeat 10 mg/kg PO QD, Day 1, individual animal, read-out: Tmax
[13] = Sprague-Dawley, rat, plasma, po, 10 mg/kg, repeat 10 mg/kg PO QD, Day 5, Mean
[14] = Sprague-Dawley, rat, plasma, po, 10 mg/kg, repeat 10 mg/kg PO QD, Day 5, individual animal
[15] = repeat 10 mg/kg PO QD, Day 1, individual animal
[16] = repeat 10 mg/kg PO QD, Day 5, individual animal
[17] = SD, rat, plasma, po, 10 mg/kg, repeat 10 mg/kg PO QD, Day 5, Mean
[18] = SD, rat, plasma, po, 10 mg/kg, repeat 10 mg/kg PO QD, Day 5, individual animal

CC(C)(N)c1csc(C(=O)c2c[nH]c3cc(F)ccc23)n1 [ARI-226, (4-(2-aminopropan-2-yl)thiazol-2-yl)(6-fluoro-1H-indol-3-yl)methanone]
half-life at 1 μM [1]: 1.8 h
hepatocyte CLint at 1 μM [1]: 6.54 µL/min/1e6 cells
EH (hepatic extraction ratio) (rat hepatocytes; Rat Hepatocytes): 30.4%
CLint lower than that of ARI-164 (fold) (rat hepatocytes): slightly lower
EH (hepatic extraction ratio) (human hepatocytes; Human Hepatocytes): 15.8%
half-life at 1 μM [2]: 3 h
hepatocyte CLint at 1 μM [2]: 3.85 µL/min/1e6 cells
AUC(0-inf) [3, 4]: 832 ng·h/mL
Cmax at 1 day [3, 4]: 112 ng/mL
MRT inf at 1 day [3, 4]: 5.81 h
half-life at 1 day [3, 4]: 2.28 h
AUC(0-t) [3, 4]: 831 ng·h/mL
Tmax at 1 day ([3]; SD, rat, plasma, po, 10 mg/kg, PO 10 mg/kg repeat dose, Day 1, Mean of 3 animals, read-out: Tmax): 4 h
Tmax at 5 days ([3]; SD, rat, plasma, po, 10 mg/kg, PO 10 mg/kg repeat dose, Day 5, individual animals (ID 4, 5, 6)): 1 h
MRT inf [3, 5]: 5.23 h
half-life [3, 5]: 2.55 h
Tmax ([3]; Sprague-Dawley (SD), rat, plasma, po, 10 mg/kg, PO 10 mg/kg repeat dose, Day 1, individual animals (ID 4, 5, 6), read-out: Tmax): 4 h
AUC(0-inf) [3, 6]: 38.7 ng·h/mL
MRT inf [3, 6]: 3.01 h
half-life [3, 6]: 1.64 h
AUC(0-t) [3, 6]: 35.7 ng·h/mL
Cmax ([3]; Sprague-Dawley (SD), rat, plasma, po, 10 mg/kg, PO 10 mg/kg repeat dose, Day 5, Mean of 3 animals, read-out: Cmax): 9.78 ng/mL
Tmax ([3]; Sprague-Dawley (SD), rat, plasma, po, 10 mg/kg, PO 10 mg/kg repeat dose, Day 5, Mean of 3 animals, read-out: Tmax): 1.67 h
half-life ([3]; Sprague-Dawley (SD), rat, plasma, po, 10 mg/kg, PO 10 mg/kg repeat dose, Day 5, individual animals (ID 4, 5, 6)): 1.05 h
behaviour of exposure after 5 days of repeat dosing (in words) [3]: increased elimination
MRTIast ([3]; PO 10 mg/kg repeat dose, Day 1, Mean of 3 animals): 5.78 h
AUCinf [3, 7]: 1280 ng·h/mL and 253 ng·h/mL and 963 ng·h/mL
AUClast [3, 7]: 1280 ng·h/mL and 253 ng·h/mL and 963 ng·h/mL
Cmax [3, 7]: 188 ng/mL and 28.4 ng/mL and 119 ng/mL
MRTIast [3, 7]: 5.18 h and 5.96 h and 6.21 h
MRTinf [3, 7]: 5.99 h and 6.22 h
T1/2 [3, 7]: 2.39 h and 1.89 h
MRTIast ([3]; PO 10 mg/kg repeat dose, Day 5, Mean of 3 animals): 2.49 h
AUCinf [3, 8]: 14.2 ng·h/mL and 54.7 ng·h/mL and 47.3 ng·h/mL
AUClast [3, 8]: 13.0 ng·h/mL and 50.9 ng·h/mL and 43.2 ng·h/mL
Cmax [3, 8]: 5.33 ng/mL and 13.2 ng/mL and 10.8 ng/mL
MRTIast [3, 8]: 1.56 h and 2.76 h and 3.15 h
MRTinf [3, 8]: 1.89 h and 3.31 h and 3.82 h
T1/2 [3, 8]: 1.87 h and 2.01 h
Tmax [3, 8]: 2 h

CC[C@H](N)c1csc(C(=O)c2c[nH]c3cc(F)ccc23)n1 [ARI-186, (S)-(4-(1-aminopropyl)thiazol-2-yl)(6-fluoro-1H-indol-3-yl)methanone]
half-life at 1 μM [1]: 2.8 h
hepatocyte CLint at 1 μM [1]: 4.1 µL/min/1e6 cells
CLint (rat hepatocytes; Rat Hepatocytes, 1 μM test compound): 4.127 μL/min/10^6 cells
EH (hepatic extraction ratio) (rat hepatocytes; Rat Hepatocytes): 21.6%
CLint lower than that of ARI-164 (fold) (rat hepatocytes): 1.8 ×
CLint (human hepatocytes; Human Hepatocytes, 1 μM test compound): 1.453 μL/min/10^6 cells
EH (hepatic extraction ratio) (human hepatocytes; Human Hepatocytes): 8.7%
CLint lower than that of ARI-164 (fold improvement) (human hepatocytes; human hepatocytes): 10.8 ×
half-life at 1 μM [2]: 7.9 h
hepatocyte CLint at 1 μM [2]: 1.5 µL/min/1e6 cells
AUC ([3]; SD, rat, plasma, po, 10 mg/kg, repeat oral dosing 10 mg/kg QD, read-out: AUC on day 1): 5940 ng·h/mL
AUC ([3]; SD, rat, plasma, po, 10 mg/kg, repeat oral dosing 10 mg/kg QD, read-out: AUC on day 5): 29100 ng·h/mL
AUC(0-inf) [3, 9]: 6480 ng·h/mL
Cmax at 1 day [3, 9]: 399 ng/mL
MRT inf at 1 day [3, 9]: 10.1 h
MRT last at 1 day [3, 9]: 8.06 h
half-life at 1 day [3, 9]: 6.04 h
AUC(0-t) [3, 9]: 5940 ng·h/mL
Tmax at 1 day [3, 10]: 6.67 h
AUC(0-t) ([3]; Sprague-Dawley (SD), rat, plasma, po, 10 mg/kg, repeat 10 mg/kg PO QD, Day 5, individual animal): 33600 ng·h/mL
AUC(0-inf) [3, 11]: 6920 ng·h/mL
Cmax at 1 day [3, 11]: 397 ng/mL
MRT inf at 1 day [3, 11]: 10.5 h
MRT last at 1 day [3, 11]: 8.14 h
half-life at 1 day [3, 11]: 6.44 h
AUC(0-t) [3, 11]: 6260 ng·h/mL
Tmax at 1 day [3, 12]: 8 h
Cmax at 5 day [3, 13]: 1580 ng/mL
MRT last at 5 day [3, 13]: 11.5 h
Tmax at 5 day [3, 13]: 4.67 h
AUC(0-t) [3, 13]: 29100 ng·h/mL
Cmax at 5 day [3, 14]: 1610 ng/mL
MRT last at 5 day [3, 14]: 11.6 h
behaviour of exposure after 5 days of repeat dosing (in words) [3]: accumulation towards steady state
AUCinf [3, 15]: 6000 ng·h/mL and 6510 ng·h/mL
AUClast [3, 15]: 5400 ng·h/mL and 6150 ng·h/mL
Cmax [3, 15]: 359 ng/mL and 441 ng/mL
MRTinf [3, 15]: 10.9 h and 8.93 h
MRTlast [3, 15]: 8.40 h and 7.63 h
T1/2 [3, 15]: 6.45 h and 5.22 h
Tmax [3, 15]: 4 h
AUClast [3, 16]: 24600 ng·h/mL
Cmax [3, 16]: 1310 ng/mL and 1810 ng/mL
MRTlast [3, 16]: 11.4 h
Tmax [3, 16]: 4 h
accumulation (AUC day 5 vs day 1) ([3]; repeat oral dosing 10 mg/kg QD): 4.9 ×

N[C@@H](c1csc(C(=O)c2c[nH]c3cc(F)ccc23)n1)C(F)(F)F [ARI-224]
half-life at 1 μM [1]: 1.9 h
hepatocyte CLint at 1 μM [1]: 6.12 µL/min/1e6 cells
EH (hepatic extraction ratio) (rat hepatocytes; Rat Hepatocytes): 29.0%
CLint lower than that of ARI-164 (fold) (rat hepatocytes): slightly lower
EH (hepatic extraction ratio) (human hepatocytes; Human Hepatocytes): 15.8%
half-life at 1 μM [2]: 3 h
hepatocyte CLint at 1 μM [2]: 3.85 µL/min/1e6 cells
AUC(0-inf) [3, 17]: 8.24 ng·h/mL
MRT inf at 5 days [3, 17]: 1.95 h
half-life at 5 days [3, 17]: 1.28 h
AUC(0-inf) [3, 18]: 8.24 ng·h/mL
MRT inf at 5 days [3, 18]: 1.95 h
half-life at 5 days [3, 18]: 1.28 h
AUC(0-inf) [3, 9]: 2680 ng·h/mL
Cmax at 1 day [3, 9]: 792 ng/mL
MRT inf at 1 day [3, 9]: 2.79 h
MRT last at 1 day [3, 9]: 2.48 h
half-life at 1 day [3, 9]: 1.55 h
AUC(0-t) [3, 9]: 2600 ng·h/mL
Tmax at 1 day [3, 10]: 1.33 h
Cmax at 1 day [3, 11]: 699 ng/mL
MRT inf at 1 day [3, 11]: 3.23 h
MRT last at 1 day [3, 11]: 2.66 h
half-life at 1 day [3, 11]: 2.05 h
Tmax at 1 day [3, 12]: 1 h
Cmax at 5 day [3, 13]: 5.96 ng/mL
MRT last at 5 day [3, 13]: 4.56 h
Tmax at 5 day [3, 13]: 0.333 h
AUC(0-t) [3, 13]: 11.4 ng·h/mL
Tmax at 5 day [3, 14]: 0.5 h
behaviour of exposure after 5 days of repeat dosing (in words) [3]: increased elimination
AUCinf [3, 15]: 2140 ng·h/mL and 4070 ng·h/mL and 1840 ng·h/mL
AUClast [3, 15]: 1990 ng·h/mL and 4030 ng·h/mL and 1770 ng·h/mL
Cmax [3, 15]: 1090 ng/mL and 587 ng/mL
MRTinf [3, 15]: 2.48 h and 2.66 h
MRTlast [3, 15]: 2.42 h and 2.36 h
T1/2 [3, 15]: 1.04 h and 1.57 h
Tmax [3, 15]: 2 h
AUClast [3, 16]: 11.9 ng·h/mL and 14.9 ng·h/mL and 7.28 ng·h/mL
Cmax [3, 16]: 5.53 ng/mL and 8.36 ng/mL and 3.98 ng/mL
MRTlast [3, 16]: 3.29 h and 8.95 h and 1.44 h
Tmax [3, 16]: 0.25 h
